Experimental data from patent US20090018134A1, “Compounds - 945” (AstraZeneca AB, priority 2007, published 2009).

Columns and labels:
Assay type in all cases: biochemical
[1] = molecular target: T1, mTOR (Homo sapiens, UniProt P42345); assay: In Vitro mTOR Kinase Assay (Echo), Test (a)(ii)
T1 construct: FLAG; made in house
Method in brief: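 Inhibition of truncated mTOR (1362-2549, FLAG-tagged, purified from stably transfected HEK293 cells) is measured as reduced AlphaScreen signal from a phospho-T389-recognising antibody bound to the biotinylated peptide product. Kinase incubation lasts 2 hours at room temperature. Potency is given as IC50.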

[2] = molecular target: T2, p110α Type Ia human PI3K (Homo sapiens, UniProt P42336); assay: In Vitro PI3K Enzyme Assay (AlphaScreen), Test (b)(i), p110α; details: read-out: IC50 versus p110α Type Ia human PI3K
T2 construct: full length DNA of each of the p110α, p110β and p110δ Type Ia human PI3K p110 isoforms; 6-His; made in house
T2 sequence (P42336 whole entry, canonical isoform): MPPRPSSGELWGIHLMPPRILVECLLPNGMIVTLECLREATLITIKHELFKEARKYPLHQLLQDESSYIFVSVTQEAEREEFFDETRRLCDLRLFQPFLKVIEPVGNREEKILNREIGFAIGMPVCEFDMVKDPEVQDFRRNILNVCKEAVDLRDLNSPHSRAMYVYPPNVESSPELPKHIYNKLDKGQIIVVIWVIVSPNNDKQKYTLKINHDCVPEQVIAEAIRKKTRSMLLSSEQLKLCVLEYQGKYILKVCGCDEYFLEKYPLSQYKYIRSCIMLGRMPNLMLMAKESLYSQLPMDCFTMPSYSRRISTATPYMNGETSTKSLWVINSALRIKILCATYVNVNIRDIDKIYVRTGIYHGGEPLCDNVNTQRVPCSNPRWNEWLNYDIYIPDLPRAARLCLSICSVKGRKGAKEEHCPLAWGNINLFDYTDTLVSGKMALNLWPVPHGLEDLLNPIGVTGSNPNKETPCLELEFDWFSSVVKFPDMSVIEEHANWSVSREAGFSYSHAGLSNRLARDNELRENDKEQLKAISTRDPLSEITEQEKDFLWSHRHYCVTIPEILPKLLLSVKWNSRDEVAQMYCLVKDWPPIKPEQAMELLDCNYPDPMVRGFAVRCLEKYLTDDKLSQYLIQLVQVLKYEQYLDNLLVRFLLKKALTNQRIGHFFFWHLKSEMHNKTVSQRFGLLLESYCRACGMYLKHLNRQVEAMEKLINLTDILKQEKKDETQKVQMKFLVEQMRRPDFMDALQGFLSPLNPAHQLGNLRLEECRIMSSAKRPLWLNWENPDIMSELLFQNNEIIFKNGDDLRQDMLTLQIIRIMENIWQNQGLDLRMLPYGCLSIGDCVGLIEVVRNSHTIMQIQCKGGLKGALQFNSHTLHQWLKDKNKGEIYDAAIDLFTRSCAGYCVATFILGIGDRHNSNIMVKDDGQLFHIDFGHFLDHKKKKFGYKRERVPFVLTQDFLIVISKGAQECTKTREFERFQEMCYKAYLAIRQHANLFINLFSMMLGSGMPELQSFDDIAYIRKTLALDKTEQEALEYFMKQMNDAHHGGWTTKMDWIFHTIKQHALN
T2 sequence (P27986 whole entry partner, canonical isoform): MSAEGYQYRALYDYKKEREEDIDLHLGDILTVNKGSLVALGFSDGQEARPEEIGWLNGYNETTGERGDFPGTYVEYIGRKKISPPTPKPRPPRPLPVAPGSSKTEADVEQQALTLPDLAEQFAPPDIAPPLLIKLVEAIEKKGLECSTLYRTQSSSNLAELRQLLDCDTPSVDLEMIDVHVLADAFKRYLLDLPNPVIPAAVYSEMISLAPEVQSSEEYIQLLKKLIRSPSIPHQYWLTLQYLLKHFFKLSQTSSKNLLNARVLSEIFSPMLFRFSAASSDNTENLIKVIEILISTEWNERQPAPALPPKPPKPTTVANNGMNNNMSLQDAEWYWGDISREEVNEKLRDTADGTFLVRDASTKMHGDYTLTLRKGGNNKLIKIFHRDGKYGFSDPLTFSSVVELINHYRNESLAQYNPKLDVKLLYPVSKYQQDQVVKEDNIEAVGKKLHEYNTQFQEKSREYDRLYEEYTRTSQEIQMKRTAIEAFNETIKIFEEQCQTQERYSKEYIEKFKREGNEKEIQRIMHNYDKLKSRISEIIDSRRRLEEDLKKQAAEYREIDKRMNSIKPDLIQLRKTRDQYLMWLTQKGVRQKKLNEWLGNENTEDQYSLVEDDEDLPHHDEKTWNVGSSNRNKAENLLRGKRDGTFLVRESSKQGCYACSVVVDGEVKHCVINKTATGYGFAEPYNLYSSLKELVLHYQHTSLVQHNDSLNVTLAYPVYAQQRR
Description: (b)(i) In Vitro PI3K Enzyme Assay
The assay used AlphaScreen technology (Gray et al., Analytical Biochemistry, 2003, 313: 234-245) to determine the ability of test compounds to inhibit phosphorylation by recombinant Type I PI3K enzymes of the lipid PI(4,5)P2.
DNA fragments encoding human PI3K catalytic and regulatory subunits were isolated from cDNA libraries using standard molecular biology and PCR cloning techniques. The selected DNA fragments were used to generate baculovirus expression vectors. In particular, full length DNA of each of the p110α, p110β and p110δ Type Ia human PI3K p110 isoforms (EMBL Accession Nos. HSU79143, S67334, Y10055 for p110α, p110β and p110δ respectively) were sub-cloned into a pDEST10 vector (Invitrogen Limited, Fountain Drive, Paisley, UK). The vector is a Gateway-adapted version of Fastbac1 containing a 6-His epitope tag. […]
Biotinylated-DiC8-PI(3,4,5)P3 (50 nM; Cell Signals Inc., Catalogue No. 107), recombinant purified GST-Grp1 PH protein (2.5 nM) and AlphaScreen Anti-GST donor and acceptor beads (100 ng; Packard Bioscience Limited, Station Road, Pangbourne, Berkshire, UK, Catalogue No. 6760603M) were added and the assay plates were left for about 5 to 20 hours at room temperature in the dark. The resultant signals arising from laser light excitation at 680 nm were read using a Packard AlphaQuest instrument. […]

[3] = molecular target: T1, mTOR; assay: mTOR Kinase Assay (Echo)
[4] = table of enzyme assay Test (a)(ii), read-out: Test (a)(ii) IC50

T1 sequence (P42345 1362-2549): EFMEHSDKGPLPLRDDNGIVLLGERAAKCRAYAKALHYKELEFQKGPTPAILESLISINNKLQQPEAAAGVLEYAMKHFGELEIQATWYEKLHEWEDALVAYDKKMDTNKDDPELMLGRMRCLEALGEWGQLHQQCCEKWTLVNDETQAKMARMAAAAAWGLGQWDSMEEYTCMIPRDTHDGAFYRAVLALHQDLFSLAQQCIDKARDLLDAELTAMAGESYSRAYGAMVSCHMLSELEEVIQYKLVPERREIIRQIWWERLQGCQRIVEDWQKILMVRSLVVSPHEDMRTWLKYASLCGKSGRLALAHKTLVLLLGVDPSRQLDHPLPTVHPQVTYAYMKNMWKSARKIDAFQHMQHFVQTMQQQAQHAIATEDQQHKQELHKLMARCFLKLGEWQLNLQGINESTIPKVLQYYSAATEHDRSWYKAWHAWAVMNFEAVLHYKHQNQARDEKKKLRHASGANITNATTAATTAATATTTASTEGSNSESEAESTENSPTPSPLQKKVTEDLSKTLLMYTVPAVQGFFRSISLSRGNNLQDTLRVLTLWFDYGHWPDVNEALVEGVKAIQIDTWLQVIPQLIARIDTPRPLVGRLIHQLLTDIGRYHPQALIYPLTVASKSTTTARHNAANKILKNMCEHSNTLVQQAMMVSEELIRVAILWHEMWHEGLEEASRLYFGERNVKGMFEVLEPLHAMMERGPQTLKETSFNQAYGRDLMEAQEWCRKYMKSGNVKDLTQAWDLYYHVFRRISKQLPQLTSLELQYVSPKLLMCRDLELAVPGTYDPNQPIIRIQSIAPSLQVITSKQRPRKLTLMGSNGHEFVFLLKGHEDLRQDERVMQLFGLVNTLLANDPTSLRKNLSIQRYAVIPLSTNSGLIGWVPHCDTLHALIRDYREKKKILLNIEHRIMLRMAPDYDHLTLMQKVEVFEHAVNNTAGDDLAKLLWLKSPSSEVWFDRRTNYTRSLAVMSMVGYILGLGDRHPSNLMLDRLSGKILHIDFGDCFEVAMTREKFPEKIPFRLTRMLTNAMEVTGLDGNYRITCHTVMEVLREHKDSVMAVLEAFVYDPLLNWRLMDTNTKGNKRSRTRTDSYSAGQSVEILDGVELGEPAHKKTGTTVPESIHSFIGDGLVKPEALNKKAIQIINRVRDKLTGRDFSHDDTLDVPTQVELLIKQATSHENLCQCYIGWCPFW

Row | IC50 ([1]; read-out: mTOR Kinase Assay (Echo)) [nM] | IC50 [2] [nM] | IC50 [1, 4] [nM] | IC50 [3] [nM] | Structure (SMILES)
1 | 0.169 | 1040 |  |  | C[C@H]1COCCN1c1cc(C2(S(C)(=O)=O)CC2)nc(-c2ccc(NC(=O)Nc3cnn(C)c3)cc2)n1 [Example 2b, 1-[4-[4-[(3S)-3-methylmorpholin-4-yl]-6-(1-methylsulfonylcyclopropyl)pyrimidin-2-yl]phenyl]-3-(1-methylpyrazol-4-yl)urea]
2 |  |  | 4.88 | 3 | CNC(=S)Nc1ccc(-c2nc(N3CCOC[C@@H]3C)cc(C3(S(=O)(=O)c4ccccc4)CC3)n2)cc1 [Example 37ab, 1-[4-[4-[1-(benzenesulfonyl)cyclopropyl]-6-[(3S)-3-methylmorpholin-4-yl]pyrimidin-2-yl]phenyl]-3-methylthiourea]
3 |  |  | 43.8 | 29.8 | C[C@H]1COCCN1c1cc(C2(S(=O)(=O)c3ccccc3)CC2)nc(-c2ccc(NC(=S)NCc3ncc[nH]3)cc2)n1 [Example 37ac, 1-[4-[4-[1-(benzenesulfonyl)cyclopropyl]-6-[(3S)-3-methylmorpholin-4-yl]pyrimidin-2-yl]phenyl]-3-(1H-imidazol-2-ylmethyl)thiourea]
4 |  |  | 19.8 | 13.2 | C[C@H]1COCCN1c1cc(C2(S(=O)(=O)CCCO)CC2)nc(-c2ccc(NC(=S)NC3CC3)cc2)n1 [Example 37h, 3-cyclopropyl-1-[4-[4-[1-(3-hydroxypropylsulfonyl)cyclopro-pyl]-6-[(3S)-3-methylmorpholin-4-yl]pyrimidin-2-yl]phenyl]thiourea]
5 |  |  | 3.79 | 3.06 | C[C@H]1COCCN1c1cc(C2(S(=O)(=O)CCCO)CC2)nc(-c2ccc(NC(=S)NCCO)cc2)n1 [Example 37i, 3-(2-hydroxyethyl)-1-[4-[4-[1-(3-hydroxypropylsulfonyl)cyclopro-pyl]-6-[(3S)-3-methylmorpholin-4-yl]pyrimidin-2-yl]phenyl]thiourea]
6 |  |  | 16.1 | 11.4 | CCNC(=S)Nc1ccc(-c2nc(N3CCOC[C@@H]3C)cc(C3(S(=O)(=O)CCCO)CC3)n2)cc1 [Example 37k, 1-ethyl-3-[4-[4-[1-(3-hydroxypropylsulfonyl)cyclopro-pyl]-6-[(3S)-3-methylmorpholin-4-yl]pyrimidin-2-yl]phenyl]thiourea]
7 |  |  | 6.86 | 5.53 | C[C@H]1COCCN1c1cc(C2(S(=O)(=O)c3ccccc3)CC2)nc(-c2ccc(NC(=S)NCCC#N)cc2)n1 [Example 37y, 1-[4-[4-[1-(benzenesulfonyl)cyclopropyl]-6-[(3S)-3-methylmorpholin-4-yl]pyrimidin-2-yl]phenyl]-3-(2-cyanoethyl)thiourea]
8 |  |  | 2.21 | 6.49 | C[C@H]1COCCN1c1cc(C2(S(=O)(=O)c3ncc[nH]3)CC2)nc(-c2ccc(NC(=O)NC3CC3)cc2)n1 [Example 40a, 3-cyclopropyl-1-[4-[4-[1-(1H-imidazol-2-ylsulfonyl)cyclopropyl]-6-[(3S)-3-methylmorpholin-4-yl]pyrimidin-2-yl]phenyl]urea]
9 |  |  | 0.607 | 0.425 | CCNC(=O)Nc1ccc(-c2nc(N3CCOCC3)cc(C3(S(=O)(=O)c4nc(C)cs4)CC3)n2)cc1 [Example 42d, 1-ethyl-3-[4-[4-[1-[(4-methyl-1,3-thiazol-2-yl)sulfonyl]cyclopropyl]-6-morpholin-4-ylpyrimidin-2-yl]phenyl]urea]
10 |  |  | 7.17 | 21.9 | CCNC(=O)Nc1ccc(-c2nc(N3CCOC[C@@H]3C)cc(C3(S(=O)(=O)CCNC(C)=O)CC3)n2)cc1 [Example 45, N-[2-[1-[2-[4-(Ethylcarbamoylamino)phenyl]-6-[(3S)-3-methylmorpholin-4-yl]pyrimidin-4-yl]cyclopropyl]sulfonylethyl]acetamide]
11 |  |  | 0.72 | 2.52 | CNC(=O)Nc1ccc(-c2nc(N3CCOC[C@@H]3C)cc(C3(S(=O)(=O)c4ccc(F)cn4)CC3)n2)cc1 [Example 48, 1-[4-[4-[1-(5-Fluoropyridin-2-yl)sulfonylcyclopropyl]-6-[(3S)-3-methylmorpholin-4-yl]pyrimidin-2-yl]phenyl]-3-methylurea]
12 |  |  | 1.16 | 1.03 | C[C@H]1COCCN1c1cc(C2(S(=O)(=O)c3ccc(F)cn3)CC2)nc(-c2ccc(NC(=O)NC3CC3)cc2)n1 [Example 48a, 3-cyclopropyl-1-[4-[4-[1-(5-fluoropyridin-2-yl)sulfonylcyclopropyl]-6-[(3S)-3-methylmorpholin-4-yl]pyrimidin-2-yl]phenyl]urea]
13 |  |  | 5.88 | 10.7 | C[C@H]1COCCN1c1cc(C2(S(C)(=O)=O)CC2)nc(-c2ccc(NC(=O)Nc3cnn(C)c3)c(F)c2)n1 [Example 52d, 1-[2-fluoro-4-[4-[(3S)-3-methylmorpholin-4-yl]-6-(1-methylsulfonylcyclopropyl)pyrimidin-2-yl]phenyl]-3-(1-methylpyrazol-4-yl)urea]
